Measured values taken from patent US9169209B2, “Compounds and compositions for the inhibition of NAMPT” (FORMA TM, LLC, priority 2011, dated 2015).
Like-named read-outs stand apart in the source and are kept apart here.

Legend:
NAMPT = NAMPT (Homo sapiens (Human), UniProt P43490); test: Biochemical Inhibition Assay (NAMPT enzymatic reaction, NMN quantified by mass spectrometry); details: recombinant His-tagged NAMPT, 33 nM; 1 μM NAM; read-out: Biochem IC50
Protocol: Recombinant His-tagged NAMPT was produced in E. coli cells, purified over a Ni column, and further purified over a size-exclusion column by XTAL Biostructures.
The NAMPT enzymatic reactions were carried out in Buffer A (50 mM Hepes pH 7.5, 50 mM NaCl, 5 mM MgCl2, and 1 mM THP) in 96-well V-bottom plates. The compound titrations were performed in a separate dilution plate by serially diluting the compounds in DMSO to make a 100× stock. […] The compound and enzyme mix was incubated for 15 minutes at room temperature, then 10 μL of 10× substrate and co-factors in Buffer A were added to the test well to make a final concentration of 1 μM NAM, 100 μM 5-Phospho-D-ribose 1-diphosphate (PRPP), and 2.5 mM Adenosine 5′-triphosphate (ATP). The reaction was allowed to proceed for 30 minutes at room temperature, then was quenched with the addition of 11 μL of a solution of formic acid and L-Cystathionine to make a final concentration of 1% formic acid and 10 μM L-Cystathionine. Background and signal strength was determined by addition (or non-addition) of a serial dilution of NMN to a pre-quenched enzyme and cofactor mix.
A mass spectrometry-based assay was used to measure the NAMPT reaction product (NMN) and the internal control (L-Cystathionine). NMN and L-Cystathionine were detected using the services of Biocius Lifesciences with the RapidFire system. In short, the NMN and L-Cystathionine are bound to a graphitic carbon cartridge in 0.1% formic acid, eluted in 30% acetonitrile buffer, and injected into a Sciex 4000 mass spectrometer. The components of the sample were ionized with electrospray ionization and the positive ions were detected. […] The fragments are quantified and the analyzed by the following method.
First the NMN signal is normalized to the L-Cystathionine signal by dividing the NMN signal by the L-Cystathionine signal for each well. The signal from the background wells are averaged and subtracted from the test plates.
Wherein x denotes the average signal of the compound treated wells and y denotes the average signal of the DMSO treated wells.
IC50s are Determined Using Excel and this Formula.
Wherein X denotes the compound concentration 1, Y denotes the compound concentration 2, XX denotes the % inhibition at compound concentration 1 (X), and YY denotes the % inhibition at compound concentration 2 (Y).

A2780 cells = test: In-Vitro Cell Proliferation Assay (SRB, 72 hours); type: cell-based; details: A2780 cells, 72 hours, sulforhodamine B, read-out: A2780 IC50
Protocol: After overnight incubation at 37° C. and 5% CO2, the compound titrations were performed in a separate dilution plate by serially diluting the compounds in DMSO to make a 1000× stock. The compounds were then further diluted to 10× final concentration in culture media, whereupon 20 μL of each dilution was added to the plated cells with controls (e.g. DMSO and blank) to make a final volume of 200 μL. The final DMSO concentration in each well was 0.1%. The plates were then incubated for 72 hours at 37° C. in a 5% CO2 incubator. The number of viable cells was then assessed using sulforhodamine B (SRB) assay. Cells were fixed at 4° C. for 1 hour with the addition of 50 μL 30% trichloroacetic acid (TCA) to make a final concentration of 6% TCA. The plates were washed four times with H2O and allowed to dry for at least 1 hour, whereupon 100 μL of a 4% SRB in 1% acetic acid solution was added to each well and incubated at room temperature for at least 30 minutes. The plates were then washed three times with 1% acetic acid, dried, and treated with 100 μL of 10 mM Tris-Base solution. The plates were then read in a microplate reader at an absorbance of 570 nm. Background was generated on a separate plate with media only.
First, the signals from the background plate are averaged and then the background was subtracted from the test plates.
wherein x denotes the average signal of the compound-treated cells and y denotes the average signal of the DMSO-treated cells.
wherein X denotes the compound concentration 1, Y denotes the compound concentration 2, XX denotes the % inhibition at compound concentration 1 (X), and YY denotes the % inhibition at compound concentration 2 (Y).

Chain of NAMPT (P43490 whole entry): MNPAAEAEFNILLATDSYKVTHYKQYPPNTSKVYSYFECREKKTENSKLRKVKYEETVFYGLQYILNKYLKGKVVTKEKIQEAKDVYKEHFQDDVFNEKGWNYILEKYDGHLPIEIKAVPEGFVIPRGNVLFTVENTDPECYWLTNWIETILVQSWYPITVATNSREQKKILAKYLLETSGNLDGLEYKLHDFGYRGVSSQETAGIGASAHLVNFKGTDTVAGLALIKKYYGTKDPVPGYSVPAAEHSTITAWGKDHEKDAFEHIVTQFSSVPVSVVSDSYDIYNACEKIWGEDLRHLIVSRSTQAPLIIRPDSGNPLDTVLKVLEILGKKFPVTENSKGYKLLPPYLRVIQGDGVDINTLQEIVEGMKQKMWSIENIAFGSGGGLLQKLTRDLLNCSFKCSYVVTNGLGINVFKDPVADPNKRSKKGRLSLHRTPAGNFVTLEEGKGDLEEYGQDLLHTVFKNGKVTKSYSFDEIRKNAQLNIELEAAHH

Compound	IC50 (NAMPT) [nM]	IC50 (A2780 cells; Homo sapiens, A2780, 72 h) [nM]	IC50 (A2780 cells) [nM]
Cn1cc(S(=O)(=O)c2ccc(NC(=O)/C=C/c3cccnc3)cc2)cn1 [(2E)-N-[4-(1-methyl-1H-pyrazole-4-sulfonyl)phenyl]-3-(pyridin-3-yl)prop-2-enamide]	7.7	100 to 1000	
CCCn1cc(S(=O)(=O)c2ccc(NC(=O)/C=C/c3cccnc3)cc2)cn1 [(2E)-N-[4-(1-propyl-1H-pyrazole-4-sulfonyl)phenyl]-3-(pyridin-3-yl)prop-2-enamide]	2.6	20.8	
O=C(/C=C/c1cccnc1)Nc1ccc(S(=O)(=O)c2cccc3[nH]ccc23)cc1 [(2E)-N-[4-(1H-indole-4-sulfonyl)phenyl]-3-(pyridin-3-yl)prop-2-enamide]	2.3	40.1	
O=C(/C=C/c1cccnc1)Nc1ccc(S(=O)(=O)c2cccc3cc[nH]c23)cc1 [(2E)-N-[4-(1H-indole-7-sulfonyl)phenyl]-3-(pyridin-3-yl)prop-2-enamide]	8.4	13.3	
O=C(/C=C/c1cccnc1)Nc1ccc(S(=O)(=O)c2cccc3c2OCC3)cc1 [(2E)-N-[4-(2,3-dihydro-1-benzofuran-7-sulfonyl)phenyl]-3-(pyridin-3-yl)prop-2-enamide]	4.9	36.1	
Cc1ncccc1S(=O)(=O)c1ccc(NC(=O)/C=C/c2cccnc2)cc1 [(2E)-N-[4-(2-methylpyridine-3-sulfonyl)phenyl]-3-(pyridin-3-yl)prop-2-enamide]	9	100 to 1000	
O=C(/C=C/c1cccnc1)Nc1ccc(S(=O)(=O)c2cccc3c2OCO3)cc1 [(2E)-N-[4-(2H-1,3-benzodioxole-4-sulfonyl)phenyl]-3-(pyridin-3-yl)prop-2-enamide]	16.1	75.1	
O=C(/C=C/c1cccnc1)Nc1ccc(S(=O)(=O)c2ccc3c(c2)OCO3)cc1 [(2E)-N-[4-(2H-1,3-benzodioxole-5-sulfonyl)phenyl]-3-(pyridin-3-yl)prop-2-enamide]	9.9	100 to 1000	
Cc1ccncc1S(=O)(=O)c1ccc(NC(=O)/C=C/c2cccnc2)cc1 [(2E)-N-[4-(4-methylpyridine-3-sulfonyl)phenyl]-3-(pyridin-3-yl)prop-2-enamide]	20.4	100 to 1000	
COc1cncc(S(=O)(=O)c2ccc(NC(=O)/C=C/c3cccnc3)cc2)c1 [(2E)-N-[4-(5-methoxypyridine-3-sulfonyl)phenyl]-3-(pyridin-3-yl)prop-2-enamide]	15.6	86.3	
Cc1cncc(S(=O)(=O)c2ccc(NC(=O)/C=C/c3cccnc3)cc2)c1 [(2E)-N-[4-(5-methylpyridine-3-sulfonyl)phenyl]-3-(pyridin-3-yl)prop-2-enamide]	18.1	74.4	
Cc1ccc(S(=O)(=O)c2ccc(NC(=O)/C=C/c3cccnc3)cc2)s1 [(2E)-N-[4-(5-methylthiophene-2-sulfonyl)phenyl]-3-(pyridin-3-yl)prop-2-enamide]	16.6	100 to 1000	
O=C(/C=C/c1cccnc1)Nc1ccc(S(=O)(=O)c2ccccc2)cc1 [(2E)-N-[4-(benzenesulfonyl)phenyl]-3-(pyridin-3-yl)prop-2-enamide]	4	81	
O=C(/C=C/c1cccnc1)Nc1ccc(S(=O)(=O)c2cncc3ccccc23)cc1 [(2E)-N-[4-(isoquinoline-4-sulfonyl)phenyl]-3-(pyridin-3-yl)prop-2-enamide]	2.45	21.7	
O=C(/C=C/c1cccnc1)Nc1ccc(S(=O)(=O)c2cccc3ccccc23)cc1 [(2E)-N-[4-(naphthalene-1-sulfonyl)phenyl]-3-(pyridin-3-yl)prop-2-enamide]	4.2	18.1	
O=C(/C=C/c1cccnc1)Nc1ccc(S(=O)(=O)c2cccc3c2Oc2ccccc2S3)cc1 [(2E)-N-[4-(phenoxathiine-4-sulfonyl)phenyl]-3-(pyridin-3-yl)prop-2-enamide]	7.2	50.1	
O=C(/C=C/c1cccnc1)NCc1ccc(S(=O)(=O)N2CC3CCC(C2)O3)cc1 [(2E)-N-[(4-{8-oxa-3-azabicyclo[3.2.1]octane-3-sulfonyl}phenyl)methyl]-3-(pyridin-3-yl)prop-2-enamide]	3	386	
CN(C)c1ncc(S(=O)(=O)c2ccc(NC(=O)/C=C/c3cccnc3)cc2)cn1 [(2E)-N-{4-[2-(dimethylamino)pyrimidine-5-sulfonyl]phenyl}-3-(pyridin-3-yl)prop-2-enamide]	7.9	73.1	
O=C(/C=C/c1cccnc1)Nc1ccc(S(=O)(=O)N2CCC(N3CCOCC3)CC2)cc1 [(2E)-N-{4-[4-(morpholin-4-yl)piperidine-1-sulfonyl]phenyl}-3-(pyridin-3-yl)prop-2-enamide]	10	210	
CN(C)c1ccc(S(=O)(=O)c2ccc(NC(=O)/C=C/c3cccnc3)cc2)cn1 [(2E)-N-{4-[6-(dimethylamino)pyridine-3-sulfonyl]phenyl}-3-(pyridin-3-yl)prop-2-enamide]	5.1	78.1	
O=C(/C=C/c1cccnc1)Nc1ccc(S(=O)(=O)c2cc(Cl)ccc2Cl)cc1 [(2E)-N-{4-[(2,5-dichlorobenzene)sulfonyl]phenyl}-3-(pyridin-3-yl)prop-2-enamide]	22.4	100 to 1000	
COc1ccc(C)cc1S(=O)(=O)c1ccc(NC(=O)/C=C/c2cccnc2)cc1 [(2E)-N-{4-[(2-methoxy-5-methylbenzene)sulfonyl]phenyl}-3-(pyridin-3-yl)prop-2-enamide]	1.8	7.3	
COc1ccccc1S(=O)(=O)c1ccc(NC(=O)/C=C/c2cccnc2)cc1 [(2E)-N-{4-[(2-methoxybenzene)sulfonyl]phenyl}-3-(pyridin-3-yl)prop-2-enamide]	7.7	24.1	
Cc1ccccc1S(=O)(=O)c1ccc(NC(=O)/C=C/c2cccnc2)cc1 [(2E)-N-{4-[(2-methylbenzene)sulfonyl]phenyl}-3-(pyridin-3-yl)prop-2-enamide]	33.3	100 to 1000	
O=C(/C=C/c1cccnc1)Nc1ccc(S(=O)(=O)c2ccc(Cl)c(Cl)c2)cc1 [(2E)-N-{4-[(3,4-dichlorobenzene)sulfonyl]phenyl}-3-(pyridin-3-yl)prop-2-enamide]	72.9	100 to 1000	
COc1ccc(S(=O)(=O)c2ccc(NC(=O)/C=C/c3cccnc3)cc2)cc1OC [(2E)-N-{4-[(3,4-dimethoxybenzene)sulfonyl]phenyl}-3-(pyridin-3-yl)prop-2-enamide]	2.5	43.6	
O=C(/C=C/c1cccnc1)Nc1ccc(S(=O)(=O)c2cc(Cl)cc(Cl)c2)cc1 [(2E)-N-{4-[(3,5-dichlorobenzene)sulfonyl]phenyl}-3-(pyridin-] [(2E)-N-{4-[(3,5-dichlorobenzene)sulfonyl]phenyl}-3-(pyridin-3-yl)prop-2-enamide]	50.5		186
COc1cc(OC)cc(S(=O)(=O)c2ccc(NC(=O)/C=C/c3cccnc3)cc2)c1 [(2E)-N-{4-[(3,5-dimethoxybenzene)sulfonyl]phenyl}-3-(pyridin-3-yl)prop-2-enamide]	20.3	44.3	
Cc1cc(C)cc(S(=O)(=O)c2ccc(NC(=O)/C=C/c3cccnc3)cc2)c1 [(2E)-N-{4-[(3,5-dimethylbenzene)sulfonyl]phenyl}-3-(pyridin-3-yl)prop-2-enamide]	17.1	95.4	
